From article PMC11314621, “Cheminformatics-Guided Exploration of Synthetic Marine Natural Product-Inspired Brominated Indole-3-Glyoxylamides and Their Potentials for Drug Discovery” (Molecules, 2024)
pIC50: −log10 of the molar value. Like-named read-outs stand apart in the source and are kept apart here.

Key:
[1] = biological target: T1, α-chymotrypsin from bovine pancreas (Bos taurus, UniProt P00766); experiment: Serine protease assay, chymotrypsin; assay type: biochemical; details: for remaining activity at 10 µM / % enzyme activity @ 10 µM, chymotrypsin: remaining enzyme activity; for pIC50: IC50 ± standard deviation
T1 construct: α-chymotrypsin from bovine pancreas (Sigma, C4129); purchased Sigma C4129; host or cells: bovine pancreas
Procedure: (§1) Serine protease-inhibitory activities for 25–56 were determined in 96 well plates. Each inhibitor was initially tested in duplicate against elastase and chymotrypsin at 10 µM. […] Assays for the inhibition of elastase were undertaken using high-purity porcine pancreatic elastase (Sigma, Melbourne, Victoria, Australia, E0258) in an assay buffer of 50 mM Tris-HCl (pH 8.0) at room temperature. Dilutions of each inhibitor (originally resuspended in DMSO) were prepared in triplicate and then preincubated with 375 ng of elastase for 15 min at room temperature in a total reaction volume of 85 µL. Following this preincubation, 15 µL of 2 mM N-succinyl-Ala-Ala-Ala-p-nitroanilide (Sigma, S4760) in assay buffer was added to each well and kinetic measurement of absorbance at 405 nm (Tecan Spark Plate Reader, Zürich, Switzerland) was undertaken for 30 min. […] Dilutions of each inhibitor were prepared in triplicate and preincubated with 5 µg of chymotrypsin for 10 min at 37 °C in a total reaction volume of 75 µL. After preincubation, 25 µL of 2 mM N-succinyl-Gly-Gly-Phe-p-nitroanilide (Sigma, S1899) was added to each well and kinetic measurement of absorbance at 405 nm was undertaken for 30 min. Inhibitory activity was determined by comparison of the slope of the reaction curve for multiple dilutions of the inhibitor to that of an equivalent solvent control and expressed as IC50 ± standard deviation.

α-synuclein = biological target: T2, α-synuclein (Homo sapiens, UniProt P37840); experiment: In vitro α-synuclein affinity MS-binding assay; details: 3 h incubation, 5:1 molar ratio, (+)-HRESIMS
T2 construct: α-synuclein protein solutions (10 μM) were prepared in 10 mM ammonium acetate
Procedure: The synthetic indoles were incubated with α-syn for 3 h at a 5:1 molar ratio, after which a (+)- mode high-resolution MS spectrum was acquired.
α-synuclein protein solutions (10 μM) were prepared in 10 mM ammonium acetate. Synthetic IGAs 25, 26, 34, 41, 45, 46, 51, and 52 (100 μM) were dissolved in 100% MeOH and incubated with α-syn at room temperature for 3 h. Protein-ligand interactions were analysed using (+) HRESIMS calibrated with sodium trifluoroacetate (0.1 mg/mL) with the following parameters: nebuliser 2.0 Bar; dry gas 7 L/min; dry temp 150 °C; funnel I RF 400 Vpp; end plate offset 500 V; capillary 4500 V; ISCID 0.0 ev; ion energy 4.0 eV; transfer time 100 μs; multipole RF 800 Vpp; collision RF 1200 Vpp; prepulse storage 10 μs; spectra rate: 2 × 100 Hz. The resulting spectra were analysed for additional peaks representing complexes formed between α-syn and active compounds.

SARS-CoV-2 3CLpro [2] = biological target: T3, SARS-CoV-2 3CLpro (Severe acute respiratory syndrome coronavirus 2, UniProt P0DTD1); experiment: biochemical
T3 construct: Each well contained 25 nM of SARS-CoV-2 3CL^Pro and eCFP-Venus biosensor (500 nM)

P. falciparum 3D7 = experiment: Antiplasmodial image-based assay, 3D7 strain; assay type: cell-based, Plasmodium falciparum; details: chloroquine-sensitive P. falciparum strain 3D7
Procedure: (§2) An anti-plasmodial imaging assay reported by Duffy and Avery was used to examine the antiplasmodial activities of synthetic indoles 25, 26, 36, 37, 38, 40, 41, 43, 45, 46, 47, 48, 50 and 51. All compounds were diluted to […] in DMSO and tested at three increasing concentrations from 0.4 nM–40 μM per log dose in a 16-point CRC ([…]) parasite strains of Plasmodium falciparum. […] Normalised percent inhibition data was obtained using in-plate positive (4 μM DHA) and negative (0.4% DMSO) controls, which were then used to calculate IC50 values. Compounds were incubated in CellCarrier-384 well imaging plates in the presence of 2% parasitemia (3D7 or Dd2) at 0.3% hematocrit in a total assay volume of 50 μL for 72 h at 37 °C, 5% O2, 5% CO2 and 90% N2. After incubation, plates were stained with 4′,6-diamidino-2-phenylindole (DAPI) and imaged using an Opera Phenix high-content imaging system (Revvity, Mulgrave, Victoria, Australia). Images were analysed using Harmony (Revvity) software (version 3), while percent parasite inhibition was calculated using the minimum (0.4% DMSO) and (DHA). IC50 values were determined by plotting % inhibition against log dose and analysed using nonlinear regression and sigmoidal dose-response using GraphPad Prism version 6.

P. falciparum Dd2 = experiment: Antiplasmodial image-based assay, Dd2 strain; assay type: cell-based, Plasmodium falciparum; details: chloroquine-resistant P. falciparum strain Dd2
Procedure: as §2

[3] = biological target: T4, porcine pancreatic elastase (Sus scrofa, UniProt P00772); experiment: Serine protease assay, elastase; assay type: biochemical; details: remaining enzyme activity
T4 construct: high-purity porcine pancreatic elastase (Sigma, Melbourne, Victoria, Australia, E0258); purchased Sigma E0258
T4 sequence (P00772 27-266): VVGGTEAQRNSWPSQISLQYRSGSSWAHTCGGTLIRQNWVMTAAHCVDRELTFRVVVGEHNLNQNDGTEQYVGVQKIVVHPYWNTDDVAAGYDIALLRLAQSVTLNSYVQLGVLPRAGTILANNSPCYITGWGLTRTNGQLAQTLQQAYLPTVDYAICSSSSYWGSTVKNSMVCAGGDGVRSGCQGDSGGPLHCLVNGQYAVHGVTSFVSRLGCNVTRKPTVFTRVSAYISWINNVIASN
Procedure: as §1

HEK293 cells = experiment: HEK293 cell cytotoxicity; assay type: cell-based; details: 60 µM, human embryonic kidney cell line
HIV-1 = tested on: HIV-1; set-up: method as in PMID 34095843, PMID 30940396; details: ref [34],[35]; cited from earlier work
protein kinase C = details: ref [15]; cited from earlier work
prion = details: cited from earlier work
SARS-CoV-2 3CLpro [4] = biological target: T3, SARS-CoV-2 3CLpro; details: cited from earlier work; for inhibition of SARS-CoV-2 3CLPro: ref [33]
elastase = tested on: elastase; set-up: method as in PMID 37609780; details: ref [36]; cited from earlier work

O=C(N[C@H](Cc1c[nH]c2ccccc12)C(=O)O)C(=O)c1c[nH]c2ccc(Br)cc12 [Compound 46, 5-bromoindolyl-3-glyoxyl-D-tryptophan]
remaining activity at 10 µM [1]: 47.7%
pIC50 [1]: 5.20
binding with α-syn (protein-ligand complexes in MS) (α-synuclein): α-syn binding displayed
inhibition at 20 µM (SARS-CoV-2 3CLpro [2]; read-out: % inhibition @ 20 µM, DTT): 2.5%
inhibition at 20 µM (SARS-CoV-2 3CLpro [2]; read-out: % inhibition @ 20 µM, No DTT): 27.4%
inhibition at 60 µM (P. falciparum 3D7; Plasmodium falciparum, 3D7, 72 h, 60 µM, 72 h): ~100%
pIC50 (P. falciparum 3D7; Plasmodium falciparum): 5.13
% Inhibition @ 60 µM, Dd2 (P. falciparum Dd2; 60 µM, 72 h): 97.5%
inhibition at 60 µM (P. falciparum Dd2; Plasmodium falciparum, DD2, 72 h, 60 µM, 72 h): ~100%
pIC50 (P. falciparum Dd2; Plasmodium falciparum): 5.09
remaining activity at 10 µM [3]: 90.9%
inhibition at 60 µM (HEK293 cells; HEK293): 21.5%

C[C@@H]1CN(C(=O)c2ccccc2)CCN1C(=O)C(=O)c1c[nH]c2ccccc12 [Compound 65]
inhibition of HIV-1 (HIV-1): nanomolar inhibition

CO[C@@H]1[C@H](NC(=O)C(=O)c2c[nH]c3ccccc23)C[C@H]2O[C@]1(C)n1c3ccccc3c3c4c(c5c6ccccc6n2c5c31)C(=O)NC4 [Compound 13, 13G-291]
protein kinase C inhibition (protein kinase C): only weak inhibition

O=C(N[C@@H](Cc1c[nH]c2ccccc12)C(=O)O)C(=O)c1c[nH]c2ccc(Br)cc12 [Compound 45, 5-bromoindolyl-3-glyoxyl-L-tryptophan]
% enzyme activity @ 10 µM, chymotrypsin [1]: 69.2%
pIC50 [1]: 4.79
binding with α-syn (protein-ligand complexes in MS) (α-synuclein): α-syn binding displayed
% inhibition @ 20 µM, No DTT (SARS-CoV-2 3CLpro [2]; 20 µM, no DTT): 21.8%
% inhibition @ 20 µM, DTT (SARS-CoV-2 3CLpro [2]; 20 µM, with DTT (4 mM)): 3.7%
% Inhibition @ 60 µM, 3D7 (P. falciparum 3D7; 60 µM, 72 h): 73.0%
% Inhibition @ 60 µM, Dd2 (P. falciparum Dd2; 60 µM, 72 h): 56.0%
% enzyme activity @ 10 µM, elastase [3]: 94.0%
% Inhibition @ 60 µM, HEK293 (HEK293 cells): 24.0%

COc1ccc(C/C(=N\O)C(=O)NCCc2cc(Br)c(OCCCN(C)C)c(Br)c2)cc1Br [Compound 57, aplysamine-2]
anti-prion activity in a yeast-based assay (prion; ref [25]): micromolar anti-prion activities

O=C(N[C@@H](Cc1c[nH]c2ccccc12)C(=O)O)C(=O)c1c[nH]c2cc(Br)ccc12 [Compound 47, 6-bromoindolyl-3-glyoxyl-L-tryptophan]
% enzyme activity @ 10 µM, chymotrypsin [1]: 99.6%
% inhibition @ 20 µM, No DTT (SARS-CoV-2 3CLpro [2]; 20 µM, no DTT): 24.4%
% inhibition @ 20 µM, DTT (SARS-CoV-2 3CLpro [2]; 20 µM, with DTT (4 mM)): 4.1%
% Inhibition @ 60 µM, 3D7 (P. falciparum 3D7; 60 µM, 72 h): 14.0%
% Inhibition @ 60 µM, Dd2 (P. falciparum Dd2; 60 µM, 72 h): 20.0%
% enzyme activity @ 10 µM, elastase [3]: 89.5%
% Inhibition @ 60 µM, HEK293 (HEK293 cells): 14.0%

O=C[C@H](C[C@@H]1CCNC1=O)NC(=O)[C@H](Cc1cccc(F)c1)NC(=O)c1cc2ccccc2[nH]1 [Compound 63]
inhibition of SARS-CoV-2 3CLPro (SARS-CoV-2 3CLpro [4]): nanomolar inhibition

purealidine Q
anti-prion activity in a yeast-based assay (prion): micromolar anti-prion activities

O=C(N[C@H](Cc1ccc(O)cc1)C(=O)O)C(=O)c1c[nH]c2ccc(Br)cc12 [Compound 50, 5-bromoindolyl-3-glyoxyl-D-tyrosine]
% enzyme activity @ 10 µM, chymotrypsin [1]: 89.2%
% inhibition @ 20 µM, No DTT (SARS-CoV-2 3CLpro [2]; 20 µM, no DTT): 6.1%
% inhibition @ 20 µM, DTT (SARS-CoV-2 3CLpro [2]; 20 µM, with DTT (4 mM)): 0.9%
% Inhibition @ 60 µM, 3D7 (P. falciparum 3D7; 60 µM, 72 h): 99.0%
% Inhibition @ 60 µM, Dd2 (P. falciparum Dd2; 60 µM, 72 h): 97.5%
% enzyme activity @ 10 µM, elastase [3]: 95.3%
% Inhibition @ 60 µM, HEK293 (HEK293 cells): 20.5%

O=C(N[C@@H](CSSC[C@H](NC(=O)C(=O)c1c[nH]c2cc(Br)ccc12)C(=O)O)C(=O)O)C(=O)c1c[nH]c2cc(Br)ccc12 [Compound 34, 6-bromoindolyl-3-glyoxyl-L-cystine]
remaining activity at 10 µM [1]: 93.1%
binding with α-syn (protein-ligand complexes in MS) (α-synuclein): α-syn binding displayed
inhibition at 20 µM (SARS-CoV-2 3CLpro [2]; 20 µM, no DTT, read-out: % inhibition @ 20 µM, No DTT): 86.1%
inhibition at 20 µM (SARS-CoV-2 3CLpro [2]; 20 µM, with DTT (4 mM), read-out: % inhibition @ 20 µM, DTT): 4.6%
pIC50 (SARS-CoV-2 3CLpro [2]; no DTT): 5.19
remaining activity at 10 µM [3]: 93.5%

CC[C@H](C)[C@@H]1NC(=O)[C@H](CC(C)C)NC(=O)[C@@H](N2C(=O)N[C@@H](C)C2=O)CNC(=O)[C@H](CS(=O)(=O)O)NC(=O)/C=C/c2csc(n2)[C@H](Cc2ccc(O)cc2)NC(=O)C1=O [Compound 66, cyclotheonellazole D]
change of SARS-CoV-2 3CLPro inhibition in the presence of DTT (SARS-CoV-2 3CLpro [4]; DTT (4 mM) versus no DTT, ref [36]): more than eightfold reduction
elastase inhibition (elastase): nanomolar potent inhibitor

O=C(N[C@H](Cc1ccc(O)cc1)C(=O)O)C(=O)c1c[nH]c2cc(Br)ccc12 [Compound 52, 6-bromoindolyl-3-glyoxyl-D-tyrosine]
% enzyme activity @ 10 µM, chymotrypsin [1]: 97.2%
binding with α-syn (protein-ligand complexes in MS) (α-synuclein): α-syn binding displayed
% inhibition @ 20 µM, No DTT (SARS-CoV-2 3CLpro [2]; 20 µM, no DTT): 14.0%
% inhibition @ 20 µM, DTT (SARS-CoV-2 3CLpro [2]; 20 µM, with DTT (4 mM)): 4.9%
% enzyme activity @ 10 µM, elastase [3]: 97.1%

O=C[C@H](C[C@@H]1CCNC1=O)NC(=O)[C@H](CC1CCCCC1)NC(=O)c1cc2ccccc2[nH]1 [Compound 62]
inhibition of SARS-CoV-2 3CLPro (SARS-CoV-2 3CLpro [4]): nanomolar inhibition

O=C(N[C@@H](Cc1ccc(O)cc1)C(=O)O)C(=O)c1c[nH]c2cc(Br)ccc12 [Compound 51, 6-bromoindolyl-3-glyoxyl-L-tyrosine]
% enzyme activity @ 10 µM, chymotrypsin [1]: 91.8%
binding with α-syn (protein-ligand complexes in MS) (α-synuclein): α-syn binding displayed
% inhibition @ 20 µM, No DTT (SARS-CoV-2 3CLpro [2]; 20 µM, no DTT): 23.3%
% inhibition @ 20 µM, DTT (SARS-CoV-2 3CLpro [2]; 20 µM, with DTT (4 mM)): 6.9%
% Inhibition @ 60 µM, 3D7 (P. falciparum 3D7; 60 µM, 72 h): 58.0%
% Inhibition @ 60 µM, Dd2 (P. falciparum Dd2; 60 µM, 72 h): 56.0%
% enzyme activity @ 10 µM, elastase [3]: 100.3%
% Inhibition @ 60 µM, HEK293 (HEK293 cells): 21.5%

O=C(C(=O)N1CCN(C(=O)c2ccccc2)CC1)c1c[nH]c2ccccc12 [Compound 64]
inhibition of HIV-1 (HIV-1): nanomolar inhibition
